Reference: ChEMBL document CHEMBL1201862, “PubChem BioAssay data set” (2004)
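Grown in 96-well plates, cells were treated for 48 hours with each compound at five concentrations. Insufficient inhibition: endpoint recorded as highest concentration tested. Here, GI50 denotes the concentration required for 50% inhibition of growth.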 Activity calls are given as the source filed them. No stated cut-off is given here; in the data, active = GI50 up to about 1.1 µM and inactive = higher.

Key:
Assay in all cases: NCI-60 cell line screen, 48 h
[1] = system: CCRF-CEM
[2] = system: DU-145
[3] = system: HCC 2998
[4] = system: HCT-15
[5] = system: HOP-92
[6] = system: K562
[7] = system: KM12
[8] = system: LOX IMVI
[9] = system: M14
[10] = system: MDA-N
[11] = system: NCI-H226
[12] = system: NCI-H23
[13] = system: OVCAR-3
[14] = system: OVCAR-8
[15] = system: SF-268
[16] = system: SF-295
[17] = system: SK-OV-3
[18] = system: SN12C
[19] = system: U-251
[20] = system: UACC-257

| SMILES | GI50 [1] | GI50 [2] | GI50 [3] | GI50 [4] [µM] | GI50 [5] | GI50 [6] | GI50 [7] | GI50 [8] | GI50 [9] | GI50 [10] | GI50 [11] | GI50 [12] | GI50 [13] | GI50 [14] | GI50 [15] | GI50 [16] | GI50 [17] | GI50 [18] | GI50 [19] | GI50 [20] |
| --- | --- | --- | --- | --- | --- | --- | --- | --- | --- | --- | --- | --- | --- | --- | --- | --- | --- | --- | --- | --- |
| COc1ccc(-c2oc3c(OC)c(OC)c(OC)c(OC)c3c(=O)c2OC)cc1OC [3,5,6,7,8,3',4'-HEPTAMETHOXYFLAVONE] | 25.6 µM (inactive) | 55.1 µM (inactive) | 63.8 µM (inactive) | 35.9 | 0.0481 µM (active) | 31.5 µM (inactive) | 47.5 µM (inactive) | 27 µM (inactive) | 41.4 µM (inactive) | 27.6 µM (inactive) | 48.9 µM (inactive) | 72.6 µM (inactive) | 18.7 µM (inactive) | 23.6 µM (inactive) | 5.45 µM (inactive) | 32 µM (inactive) | > 100 µM (inactive) | 93.3 µM (inactive) | 51.5 µM (inactive) | 53.1 µM (inactive) |
| O=C(O)C1OC(n2cc(F)c(=O)[nH]c2=O)CC1O (stereo not given) | 3.44 µM (inactive) | 24.3 µM (inactive) | 0.574 µM (active) | 77.4 | 7.13 µM (inactive) | > 86.1 µM (inactive) | > 95.9 µM (inactive) | 8.87 µM (inactive) | 29.4 µM (inactive) | > 97.3 µM (inactive) | > 83.9 µM (inactive) | 38.7 µM (inactive) | 60.1 µM (inactive) | 17.5 µM (inactive) | 3.35 µM (inactive) | 5.47 µM (inactive) | > 94.8 µM (inactive) | 17.7 µM (inactive) | 35.2 µM (inactive) | > 100 µM (inactive) |
| Cc1ncc(-c2nnnn2-c2ccccc2)c(C(=O)O)n1 | > 100 µM (inactive) | > 100 µM (inactive) | > 100 µM (inactive) | > 100 | > 100 µM (inactive) | > 100 µM (inactive) | > 100 µM (inactive) | > 100 µM (inactive) | > 100 µM (inactive) | > 100 µM (inactive) | > 100 µM (inactive) | > 100 µM (inactive) | > 100 µM (inactive) | > 100 µM (inactive) | > 100 µM (inactive) | > 100 µM (inactive) | > 100 µM (inactive) | > 100 µM (inactive) | > 100 µM (inactive) | > 100 µM (inactive) |
